# Results reported in patent publication US20030232862A1 (priority 2002, published 2003).
# Experiments:
# [1] = target: cGMP PDE purified from human colon HT-29 cultured tumor cells (Homo sapiens, UniProt O76074); assay: cGMP PDE inhibition assay; assay type: biochemical
# [2] = tested on: HT-29 colon adenocarcinoma cells; assay: Apoptosis by DNA fragmentation assay in HT-29 cells; assay type: cell-based, human; settings: Table 9 qualitative profile; also: key: −: Not active; +: Slightly active; + +: Moderately active; + + +: Strongly active; + + + +: Highly active
# [3] = tested on: premalignant lesions in mouse mammary gland organ culture; assay: Mammary gland organ culture model; assay type: cell-based; as to mammary gland organ culture: key: −: Not active; +: Slightly active; + +: Moderately active; + + +: Strongly active; + + + +: Highly active
# From the text: Test compounds identified by the above methods can be tested for antineoplastic activity by their ability to inhibit the incidence of pre-neoplastic lesions in a mammary gland organ culture system. This mouse mammary gland organ culture technique has been successfully used by other investigators to study the effects of known antineoplastic agents such as certain NSAIDs, retinoids, tamoxifen, selenium, and certain natural products, and is useful for validation of the screening method of the present invention.
# For example, female BALB/c mice can be treated with a combination of estradiol and progesterone daily, in order to prime the glands to be responsive to hormones in vitro. The animals are sacrificed, and thoracic mammary glands are excised aseptically and incubated for ten days in growth media supplemented with insulin, prolactin, hydrocortisone, and aldosterone. DMBA (7,12-dimethylbenz(a)anthracene) is added to medium to induce the formation of premalignant lesions. Fully developed glands are then deprived of prolactin, hydrocortisone, and aldosterone, resulting in the regression of the glands but not the pre-malignant lesions.
# The test compound is dissolved in DMSO and added to the culture media for the duration of the culture period. At the end of the culture period, the glands are fixed in 10% formalin, stained with alum carmine, and mounted on glass slides. The incidence of forming mammary lesions is the ratio of the glands with mammary lesions to […]. The incidence of mammary lesions in test compound treated glands is compared with that of the untreated glands.
# The extent of the area occupied by the mammary lesions can be quantitated by projecting an image of the gland onto a digitation pad. The area covered by the gland is traced on the pad and considered as 100% of the area. The space covered by each of the non-regressed structures is also outlined on the digitization pad and quantitated by the computer.
# Mammary gland organ culture experiment were performed as previously described (Mehta and Moon, Cancer Research, 46: 5832-5835, 1986).
# HT-29 cells = assay: Growth inhibition of HT-29 cells (SRB assay; trypan blue counting in time course); assay type: cell-based, human; settings: Table 9 qualitative profile
# [4] = tested on: PKG activity in SW480 colon cancer cells; assay: PKG activity assay in drug-treated SW480 cells; assay type: cell-based, human; settings: SW480, 48 hrs, with and without added cGMP; exisulind 200-600 μM, E4021 0.1-10 μM
# From the text: The novel PKG assay of this invention involves binding to solid phase plural amino acid sequences, each of which contain at least the cGMP-binding (cGB) domain and the phosphorylation site of phosphodiesterase type 5 (“PDE5”). That sequence is known and described in the literature below. […] One way to bind the PDE5 sequences to a solid phase is to express those sequences as a fusion protein of the PDE5 sequence and one member of an amino acid binding pair, and chemically link the other member of that amino acid binding pair to a solid phase (e.g., beads). One binding pair that can be used is glutathione S-transferase (“GST”) and glutathione (“GSH”), with the GST being expressed as a fusion protein with the PDE5 sequence described above, and the GSH bound covalently to the solid phase. In this fashion, the PDE5 sequence/GST fusion protein can be bound to a solid phase simply by passing a solution containing the fusion protein over the solid phase, as described below.
# To assay a liquid sample believed to contain PKG using the PDE5-bound solid phase described above, the sample and the solid phase are mixed with phosphorylation buffer containing ^32P-γ-ATP. […]
# For each control or drug cell lysate sample to be evaluated, the reaction is started by adding phosphorylation buffer containing 10 μCi ^32P-γ-ATP solution (200 μM ATP, 4.5 mM MgCl; 5 mM KH2PO4; 5 mM K2HPO4;) to each mixture. […]
smiles,measurement,setting,value
"CC1=C(CC(=O)O)c2cc(F)ccc2/C1=C\c1ccc(S(C)(=O)=O)cc1 [Exisulind, 5-fluoro-2-methyl-1-(p-methylsulfonylbenzylidene)-3-indenylacetic acid]",PDE Inhibition,[1]; Table 9 qualitative profile,+ +
same,inhibition at 10 µM,"[1]; read-out: % Inhibition at 10 μM (cGMP PDE), 10 μM",39%
same,IC50,[1]; read-out: IC50 for inhibition of cGMP PDE,56 µM
same,Apoptosis,[2],+ +
same,inhibition of formation of premalignant lesions,[3]; FIG. 17,effectively inhibit
same,Mammary Gland Organ Culture,[3]; Table 9 qualitative profile,+ + +
same,Growth Inhibition,HT-29 cells,+ +
same,PKG activity relative to control,[4],increase in a dose-dependent manner
